The subject of experiment [1] is Phosphorylation of ERK1/2 in AsPC-1 cells. Put plainly: Phospho-ERK1/2 MSD Assay. The settings on record: Homo sapiens, ASPC1, 2 h, read-out: 2 h p-ERK (AsPC-1 cells), IC50. The class given is cell-based, human. A digest of the protocol: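 Read-out: MSD electrochemiluminescent detection of phosphorylated ERK1/2 in whole-cell lysates, fitted to a 4-parameter logistic curve for IC50. Prior to lysis, AsPC-1 cells (25,000 per well) received a 2 h compound dose-response at 37 °C.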

For another experiment, the system named is AsPC-1 cells. Put plainly: AsPC-1 CTG Assay (CellTiter-Glo cell viability). Particulars: Homo sapiens, AsPC-1, 72 h, first value of the cell, read-out: G12D/C/V Cell Proliferation CTG (72 h) AsPC-1. The class given is cell-based, human. A digest of the protocol: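 IC50 values derive from 4-parameter logistic fits of CellTiter-Glo luminescence, expressed relative to DMSO. Compound dilution series were applied to overnight-seeded AsPC-1 or SW620 cells (RPMI 1640, 10% FBS) for 72 h at 37 °C, 5% CO2.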
(In general: In ATP-based viability assays light output follows the ATP content of the culture.)

Experiment [2] concerns the target GDP-bound KRAS protein (aa 1-169), containing both G12D and C118A amino acid substitutions (Homo sapiens (Human), UniProt P01116, C118A/G12D). Put plainly: KRAS G12D Coupled Nucleotide Exchange Assay. It counts as biochemical. The settings on record: read-out: KRAS G12D Coupled Exchange IC50.
For a further experiment, the system named is MIA PaCa-2 cells. Put plainly: MIA PaCa-2 CTG Assay (CellTiter-Glo cell viability). It counts as cell-based, human. Particulars: Homo sapiens; Mia PaCa-2, 72 h; second value of the cell; read-out: G12D/C/V Cell Proliferation CTG (72 h) Mia PaCa-2. On the procedure: MIA PaCa-2 CTG Assay Protocol
MIA PaCa-2 (human pancreatic carcinoma; ATCC CRL-1420) cells were cultured in RPMI 1640 medium containing 10% fetal bovine serum and 1× penicillin/streptomycin/L-glutamine. Cells were seeded in 384-well plates at a density of 1.67E+04 cells/mL and incubated at 37° C., 5% CO2, overnight. Serially-diluted compound or DMSO was added to the cells, and plates were incubated at 37° C., 5% CO2 for 72 h. Cell viability was measured using a CellTiter-Glo® Luminescent Cell Viability Assay kit (Promega) according to the manufacturer's protocol. The luminescence signal of treated samples was normalized to DMSO control, and data were analyzed using a 4-parameter logistic model to calculate IC50 values.

For experiment [3], the target named is His-tagged KRAS G12D protein (Homo sapiens (Human), UniProt P01116, G12D). Put plainly: KRAS G12D TR-FRET Assay. The class given is binding. The settings on record: read-out: KRAS G12D Binding IC50. An outline of the steps: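 Each incubation ran at room temperature: enzyme with compound for 30 minutes, peptide for one hour, and detection reagents (0.4 nM europium anti-6×His, 5 nM streptavidin-d2) for one hour more. Protein and peptide stocks were each diluted to 20 nM before addition.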
Chain of His-tagged KRAS G12D protein (P01116 other isoform, or with tags, fused parts or gaps G12D): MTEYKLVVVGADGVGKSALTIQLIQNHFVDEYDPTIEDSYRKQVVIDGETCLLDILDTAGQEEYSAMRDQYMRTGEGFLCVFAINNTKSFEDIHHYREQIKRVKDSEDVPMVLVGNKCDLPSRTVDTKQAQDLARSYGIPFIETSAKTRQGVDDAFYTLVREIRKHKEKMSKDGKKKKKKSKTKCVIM
For orientation: Time-resolved FRET reads energy transfer from a long-lived donor to a nearby acceptor.

Where a name gives a salt, the structure may show the parent alone. Read-outs that look alike come from different tables or passages of the source.

Chain of GDP-bound KRAS protein (aa 1-169), containing both G12D and C118A amino acid substitutions (P01116 other isoform, or with tags, fused parts or gaps G12D/C118A): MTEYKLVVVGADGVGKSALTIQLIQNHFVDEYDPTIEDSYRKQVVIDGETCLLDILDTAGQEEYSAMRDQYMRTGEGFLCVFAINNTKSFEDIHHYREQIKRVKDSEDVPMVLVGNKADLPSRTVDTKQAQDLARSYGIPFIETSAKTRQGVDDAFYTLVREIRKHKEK

`O=C1CC/C=C\c2c(Cl)cc3[nH]ncc3c2-c2ncc3c(nc(OC[C@@]45CCCN4C[C@H](F)C5)nc3c2F)N2CCCC(C2)O1` (stereo in doubt) [Example 35, (11Z,17S)-9-Chloro-30-fluoro-24-(((2R,7aS)-2-fluorotetrahydro-1H-pyrrolo[1,2-a]pyrrol-7a(5H)-yl)methoxy)-16-oxa-5,6,21,23,25,29-hexaazahexacyclo[24.3.1.1˜17,21˜.0˜2,10˜.0˜3,7˜.0˜22,27˜]hentriaconta-1(30),2,4,7,9,11,22,24,26,28-decaen-15-one bis(2,2,2-trifluoroacetate)]: the IC50 in experiment [1] came to 19 nM; with AsPC-1 cells (ASPC1), 277 nM; in experiment [2], 1 nM; in the experiment on MIA PaCa-2 cells it was 90 nM; in experiment [3] it was 1 nM.

As to `C[C@@]12CCCN(C1)c1nc(OC[C@@]34CCCN3C[C@H](F)C4)nc3c(F)c(ncc13)-c1cc(O)cc3cccc(c13)CCCC(=O)N2` [Example 3, (15R)-31-Fluoro-8-(((2R,7aS)-2-fluorotetrahydro-1H-pyrrolo[1,2-a]pyrrol-7a(5H)-yl)methoxy)-27-hydroxy-15-methyl-3,7,9,11,16-pentaazahexacyclo[19.7.1.1˜2,6˜.1˜11,15˜.0˜5,10˜.0˜25,29˜]hentriaconta-1(28),2(31),3,5,7,9,21,23,25(29),26-decaen-17-one bis(2,2,2-trifluoroacetate)], the IC50 in experiment [1] is 23 nM; in the experiment on AsPC-1 cells (ASPC1, 72 h), 285 nM; in experiment [2], 0.1 nM; in the experiment with MIA PaCa-2 cells, 75 nM; in experiment [3], 1 nM.

With `CN1C[C@H](F)C[C@H]1COc1nc2c3cnc(c(F)c3n1)-c1cc(O)cc3ccc(F)c(c13)CCCC(=O)N[C@]1(C)CCCN2C1` [Example 5, (15R)-22,31-Difluoro-8-(((2S,4R)-4-fluoro-1-methyl-2-pyrrolidinyl)methoxy)-27-hydroxy-15-methyl-3,7,9,11,16-pentaazahexacyclo[19.7.1.1˜2,6˜.1˜11,15˜.0˜5,10˜.0˜25,29˜]hentriaconta-1(28),2(31),3,5,7,9,21,23,25(29),26-decaen-17-one bis(2,2,2-trifluoroacetate)], the IC50 in experiment [1] was 23 nM; in the experiment on AsPC-1 cells (ASPC1, 72 h), 471 nM; in experiment [2] it was 1 nM; with MIA PaCa-2 cells, 62 nM; in experiment [3], 1 nM.

For the compound `C[C@@]12CCN(C1)c1nc(OC[C@@]34CCCN3C[C@H](F)C4)nc3c(F)c(ncc13)-c1cc(O)cc3ccc(F)c(c13)CCCC(=O)N2` [Example 10, (14R)-21,30-Difluoro-8-(((2R,7aS)-2-fluorotetrahydro-1H-pyrrolo[1,2-a]pyrrol-7a(5H)-yl)methoxy)-26-hydroxy-14-methyl-3,7,9,11,15-pentaazahexacyclo[18.7.1.1˜2,6˜.1˜11,14˜.0˜5,10˜.0˜24,28˜]triaconta-1(27),2(30),3,5,7,9,20,22,24(28),25-decaen-16-one 2,2,2-trifluoroacetate salt], the IC50 in experiment [1] was found to be 84 nM; with AsPC-1 cells (ASPC1, 72 h), 574 nM; in experiment [2], 2 nM; with MIA PaCa-2 cells, 157 nM; in experiment [3] it was 4 nM.

In the case of `CN(C)CC1(COc2nc3c4cnc(c(F)c4n2)-c2cc(O)cc4ccc(F)c(c24)CCCC(=O)N[C@]2(C)CCCN3C2)CC1` [Example 22, (15R)-8-((1-((Dimethylamino)methyl)cyclopropyl)methoxy)-22,31-difluoro-27-hydroxy-15-methyl-3,7,9,11,16-pentaazahexacyclo[19.7.1.1˜2,6˜.1˜11,15˜.0˜5,10˜.0˜25,29˜]hentriaconta-1(28),2(31),3,5,7,9,21,23,25(29),26-decaen-17-one bis(2,2,2-trifluoroacetate)], the IC50 in experiment [1] amounted to 5 nM; in the experiment on AsPC-1 cells (ASPC1, 72 h), 108 nM; in experiment [2], 1 nM; with MIA PaCa-2 cells, 10 nM; in experiment [3], 3 nM.

Take `C[C@@]12CCCN(C1)c1nc(OC[C@@]34CCCN3C[C@H](F)C4)nc3c(F)c(ncc13)-c1cc(O)cc3ccc(F)c(c13)CCCCC(=O)N2` [Example 47, (15R)-23,32-Difluoro-8-(((2R,7aS)-2-fluorotetrahydro-1H-pyrrolo[1,2-a]pyrrol-7a(5H)-yl)methoxy)-28-hydroxy-15-methyl-3,7,9,11,16-pentaazahexacyclo[20.7.1.1˜2,6˜.1˜11,15˜.0˜5,10˜.0˜26,30˜]dotriaconta-1(30),2(32),3,5,7,9,22,24,26,28-decaen-17-one]: the IC50 in experiment [1] turned out to be 36 nM; in the experiment with AsPC-1 cells (ASPC1, 72 h), 350 nM; in experiment [2] it was 2 nM; with MIA PaCa-2 cells, 200 nM; in experiment [3], 4 nM.

Regarding `O=C1CCCc2c(F)ccc3cccc(c23)-c2ncc3c(nc(OC[C@@]45CCCN4C[C@H](F)C5)nc3c2F)N2CC[C@H]3CCN1[C@H]3C2` [Example 72, (27S,31R)-18,33-difluoro-4-(((2R,7aS)-2-fluorotetrahydro-1H-pyrrolo[1,2-a]pyrrol-7a(5H)-yl)methoxy)-1,3,5,9,24-pentaazaheptacyclo[22.5.2.1˜6,10˜.1˜11,15˜.0˜2,7˜.0˜19,32˜.0˜27,31˜]tritriaconta-2,4,6,8,10(33),11,13,15(32),16,18-decaen-23-one], the IC50 in experiment [1] came out at 16 nM; in the experiment on AsPC-1 cells (ASPC1, 72 h), 230 nM; in experiment [2] it was 1 nM; in the experiment with MIA PaCa-2 cells, 200 nM; in experiment [3], 3 nM.

Turning to `O=C1CCCCc2c(Cl)cc3[nH]ncc3c2-c2ncc3c(nc(OC[C@@]45CCCN4C[C@H](F)C5)nc3c2F)N2CCCC[C@H](C2)O1` [Example 82, (26R)-18-chloro-32-fluoro-4-(((2R,7aS)-2-fluorotetrahydro-1H-pyrrolo[1,2-a]pyrrol-7a(5H)-yl)methoxy)-25-oxa-1,3,5,9,14,15-hexaazahexacyclo[24.4.1.1~6,10~.0~2,7~.0~11,19~.0~12,16~]dotriaconta-2,4,6,8,10(32),11,13,16,18-nonaen-24-one], the IC50 in experiment [1] was found to be 2 nM; in the experiment on AsPC-1 cells (ASPC1, 72 h) it was 40 nM; in experiment [2] it was 1 nM; with MIA PaCa-2 cells it was 10 nM; in experiment [3] it was 2 nM.

As to `Cc1cc2[nH]ncc2c2c1CCCCC(=O)O[C@@H]1COCCN(C1)c1nc(OC[C@@]34CCCN3C[C@H](F)C4)nc3c(F)c-2ncc13` [Example 83, (26S)-32-fluoro-4-(((2R,7aS)-2-fluorotetrahydro-1H-pyrrolo[1,2-a]pyrrol-7a(5H)-yl)methoxy)-18-methyl-25,28-dioxa-1,3,5,9,14,15-hexaazahexacyclo[24.4.1.1~6,10~.0~2,7~.0~11,19~.0~12,16~]dotriaconta-2,4,6,8,10(32),11,13,16,18-nonaen-24-one], the IC50 came out at 15 nM in experiment [1]; 160 nM in the experiment on AsPC-1 cells (ASPC1, 72 h); 3 nM in experiment [2]; 40 nM with MIA PaCa-2 cells; 4 nM in experiment [3].

As for `O=C1CCCCc2c(Cl)cc3[nH]ncc3c2-c2ncc3c(nc(OC[C@@]45CCCN4C[C@H](F)C5)nc3c2F)N2CCOC[C@H](C2)O1` [Example 84, (26S)-18-chloro-32-fluoro-4-(((2R,7aS)-2-fluorotetrahydro-1H-pyrrolo[1,2-a]pyrrol-7a(5H)-yl)methoxy)-25,28-dioxa-1,3,5,9,14,15-hexaazahexacyclo[24.4.1.1~6,10~.0~2,7~.0~11,19~.0~12,16~]dotriaconta-2,4,6,8,10(32),11,13,16,18-nonaen-24-one], the IC50 amounted to 4 nM in experiment [1]; 50 nM with AsPC-1 cells (ASPC1, 72 h); 1 nM in experiment [2]; 20 nM in the experiment with MIA PaCa-2 cells; 2 nM in experiment [3].

Turning to `CN1C[C@H](F)C[C@H]1COc1nc2c3cnc(c(F)c3n1)-c1c(c(Cl)cc3[nH]ncc13)CCCCC(=O)O[C@@H]1CCCCN2C1` [Example 85, (26R)-18-chloro-32-fluoro-4-(((2S,4R)-4-fluoro-1-methyl-2-pyrrolidinyl)methoxy)-25-oxa-1,3,5,9,14,15-hexaazahexacyclo[24.4.1.1~6,10~.0~2,7~.0~11,19~.0~12,16~]dotriaconta-2,4,6,8,10(32),11,13,16,18-nonaen-24-one], the IC50 was 58 nM in experiment [1]; 480 nM in the experiment on AsPC-1 cells (ASPC1, 72 h); 4 nM in experiment [2]; 400 nM with MIA PaCa-2 cells; 5 nM in experiment [3].

Source of the values: patent US20240294551A1 (AMGEN INC., priority 2022, published 2024).
